The source of these data is patent US9624229B2, “Pyrimidine-2-amine compounds and their use as inhibitors of JAK kinases” (Rigel Pharmaceuticals, Inc., priority 2008, dated 2017).

Structures are written as SMILES. Some results are limits rather than exact numbers.

Ba/F3 V617F cells, sequence (O60674 whole entry V617F): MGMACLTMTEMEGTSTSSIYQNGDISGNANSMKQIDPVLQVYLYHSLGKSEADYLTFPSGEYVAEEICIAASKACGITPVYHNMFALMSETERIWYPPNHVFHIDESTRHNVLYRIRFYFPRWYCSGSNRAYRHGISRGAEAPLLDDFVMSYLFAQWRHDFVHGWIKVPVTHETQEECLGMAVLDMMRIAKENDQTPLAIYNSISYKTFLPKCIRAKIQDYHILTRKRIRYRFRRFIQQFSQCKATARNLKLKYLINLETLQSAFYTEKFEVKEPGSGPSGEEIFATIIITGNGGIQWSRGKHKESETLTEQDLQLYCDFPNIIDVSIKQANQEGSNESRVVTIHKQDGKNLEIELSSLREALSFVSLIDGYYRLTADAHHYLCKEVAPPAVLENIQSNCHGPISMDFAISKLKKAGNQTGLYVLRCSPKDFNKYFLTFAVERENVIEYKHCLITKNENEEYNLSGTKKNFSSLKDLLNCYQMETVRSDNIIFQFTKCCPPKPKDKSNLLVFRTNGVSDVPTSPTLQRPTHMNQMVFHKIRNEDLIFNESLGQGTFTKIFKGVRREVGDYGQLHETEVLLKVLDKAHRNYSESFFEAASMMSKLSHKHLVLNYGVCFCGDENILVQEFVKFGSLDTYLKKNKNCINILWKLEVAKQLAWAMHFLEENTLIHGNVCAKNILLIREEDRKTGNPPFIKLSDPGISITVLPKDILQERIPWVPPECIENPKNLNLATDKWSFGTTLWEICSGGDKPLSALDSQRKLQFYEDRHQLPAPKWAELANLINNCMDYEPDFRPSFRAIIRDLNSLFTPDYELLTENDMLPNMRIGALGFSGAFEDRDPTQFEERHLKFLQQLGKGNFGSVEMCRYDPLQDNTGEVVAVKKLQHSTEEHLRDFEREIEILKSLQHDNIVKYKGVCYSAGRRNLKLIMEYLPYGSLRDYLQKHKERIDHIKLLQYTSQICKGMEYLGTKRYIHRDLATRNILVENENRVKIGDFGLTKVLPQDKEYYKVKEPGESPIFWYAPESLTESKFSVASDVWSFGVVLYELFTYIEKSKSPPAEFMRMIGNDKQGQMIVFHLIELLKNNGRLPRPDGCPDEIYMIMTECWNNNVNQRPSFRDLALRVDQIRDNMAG

The first assay addresses Ba/F3 V617F cells (Homo sapiens, UniProt O60674, V617F, cells depend on it). Briefly: Proliferation assay (Cell Titer-Glo, 72 h) utilizing Ba/F3 V617F cells. The conditions noted are these: Ba/F3 V617F cells, proliferation, level of activity given as class symbol, read-out: IC50 (the source's name). It is filed as cell-based, mouse. Put shortly: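 Readout is CellTiter-Glo luminescence after 72 h at 37 °C, giving IC50. Cells: Ba/F3 V617F, 1×10^5 cells/mL in RPMI with 10% FBS, treated in duplicate with 3-fold dilution series made from 5 mM DMSO stock, 1:250 in 5% FBS medium, added at 2×.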
On the technique in general: ATP-based viability assays read luminescence as a measure of living cells.
With `CCC(=O)N1C[C@@H]2C[C@H]1CN2c1ccc(Nc2nccc(-c3ccc(NCCN4CCOCC4)nc3)n2)cc1C` [compound 197, 4-(6-(2-(morpholin-4-yl)ethyl)aminopyridin-3-yl)-N-(3-methyl-4-((1S,4S)-5-ethylcarbonyl-2,5-diazabicyclo[2.2.1]heptan-2-yl)phenyl)pyrimidin-2-amine], the GI50 lay in the range of 1 to 10 µM.

For `CN1C[C@@H]2C[C@H]1CN2c1ccc(Nc2nccc(-c3cnc4c(c3)OC(C)(C)C(=O)N4)n2)cc1Cl` [compound 248, 4-(2,2-dimethyl-3-oxo-3,4-dihydro-2H-pyrido[3,2-b][1,4]oxazin-7-yl)-N-(3-chloro-4-((1S,4S)-5-methyl-2,5-diazabicyclo[2.2.1]heptan-2-yl)phenyl)pyrimidin-2-amine], the GI50 is less than 1 µM.

As to `Cc1cc(Nc2nccc(-c3ccc(N4C[C@@H]5C[C@H]4CO5)nc3)n2)ccc1N1CCN2CCC1CC2` [compound 280, 4-(6-((1S,4S)-2-oxa-5-azabicyclo[2.2.1]heptan-5-yl)pyridin-3-yl)-N-(3-methyl-4-(1,4-diazabicyclo[3.2.2]nonan-4-yl)phenyl)pyrimidin-2-amine], the GI50 is less than 1 µM.

Regarding `Cc1cc(Nc2nccc(-c3ccc(N4CCOCC4)nc3)n2)ccc1N1CCN2CC[C@@H]1C2` [compound 276, 4-(6-(morpholin-4-yl)pyridin-3-yl)-N-(3-methyl-4-((R)-1,4-diazabicyclo[3.2.1]octan-4-yl)phenyl)pyrimidin-2-amine], the GI50 is less than 1 µM.

On to `Cc1cc(Nc2nccc(-c3ccc(N4CCOCC4)nc3)n2)ccc1N1C[C@@H]2C[C@H]1CN2C(=N)N` [compound 199, 4-(6-(morpholin-4-yl)pyridin-3-yl)-N-(3-methyl-4-((1S,4S)-5-amidino-2,5-diazabicyclo[2.2.1]heptan-2-yl)phenyl)pyrimidin-2-amine], for which the GI50 is 1 to 10 µM.

As to `Cc1cc(Nc2nccc(-c3ccc(NCCCN(C)C)nc3)n2)ccc1N1CC2(C)CN(C)CC(C)(C1)C2` [compound 214, 4-(6-(3-dimethylamino)propylaminopyridin-3-yl)-N-(3-methyl-4-(1,5,7-trimethyl-3,7-diazabicyclo[3.3.1]nonan-3-yl)phenyl)pyrimidin-2-amine], the GI50 lay within 1 to 10 µM.

`Cc1cc(Nc2nccc(-c3ccc(N4CCCC(C(N)=O)C4)nc3)n2)ccc1N1C[C@@H]2C[C@H]1CN2C` (stereo partly drawn) [compound 191, 4-(6-(3-(aminocarbonyl)piperidin-1-yl)pyridin-3-yl)-N-(3-methyl-4-((1S,4S)-5-methyl-2,5-diazabicyclo[2.2.1]heptan-2-yl)phenyl)pyrimidin-2-amine]: the GI50 lay in the range of 1 to 10 µM.

For the molecule `CCCNc1ccc(-c2ccnc(Nc3ccc(N4C[C@@H]5C[C@H]4CO5)c(C)c3)n2)cn1` [compound 202, 4-(6-(propylamino)pyridin-3-yl)-N-(3-methyl-4-((1S,4S)-5-oxa-2-azabicyclo[2.2.1]heptan-2-yl)phenyl)pyrimidin-2-amine], the GI50 is less than 1 µM.

As to `Cc1cc(Nc2nccc(-c3ccc(N4CCOCC4)nc3)n2)ccc1N1C2CCC1CC(N(C)C)C2` (stereo not drawn) [compound 286, 4-(6-(morpholin-4-yl)pyridin-3-yl)-N-(3-methyl-4-(3-(dimethylamino)-8-azabicyclo[3.2.1]octan-8-yl)phenyl)pyrimidin-2-amine], the GI50 is less than 1 µM.

Staying with this assay, now noted: Ba/F3 V617F cells, proliferation, level of activity to inhibit JAK2, read-out: IC50 (the source's name).
Regarding `Cc1cc(Nc2nccc(-c3ccc4cc[nH]c4c3)n2)ccc1N1C[C@@H]2C[C@H]1CN2C` [compound 21, 4-(1H-indol-6-yl)-N-(3-methyl-4-((1S,4S)-5-methyl-2,5-diazabicyclo[2.2.1]heptan-2-yl)phenyl)pyrimidin-2-amine], the GI50 is less than 1 µM.

For the molecule `CN1C[C@@H]2C[C@H]1CN2c1ccc(Nc2nccc(-c3ccc(NC(=O)CN4CCOCC4)nc3)n2)cc1F` [compound 143, 4-(6-(2-(morpholin-4-yl)acetamido)pyridin-3-yl)-N-(3-fluoro-4-((1S,4S)-5-methyl-2,5-diazabicyclo[2.2.1]heptan-2-yl)phenyl)pyrimidin-2-amine], the GI50 fell in the range of 1 to 10 µM.

Turning to `Cc1cc(Nc2nccc(-c3ccc4c(c3)CC(=O)N4)n2)ccc1N1C[C@@H]2C[C@H]1CN2C` [compound 113, 4-(2-oxoindolin-5-yl)-N-(3-methyl-4((1S,4S)-5-methyl-2,5-diazabicyclo[2.2.1]heptan-2-yl)phenyl)pyrimidin-2-amine], the GI50 was less than 1 µM.

Regarding `CC1CCCN(c2cnc(-c3ccnc(Nc4ccc(N5C[C@@H]6C[C@H]5CN6C)c(F)c4)n3)cn2)C1` (stereo partly drawn) [compound 127, 4-(5-(3-methylpiperidin-1-yl)pyrazin-2-yl)-N-(3-fluoro-4-((1S,4S)-5-methyl-2,5-diazabicyclo[2.2.1]heptan-2-yl)phenyl)pyrimidin-2-amine], the GI50 is 1 to 10 µM.

As for `Cc1cc(Nc2nccc(-c3ccc4ncn(C)c4c3)n2)ccc1N1C[C@@H]2C[C@H]1CN2C` [compound 107, 4-(1-methylbenzimidazol-6-yl)-N-(3-methyl-4-((1S,4S)-5-methyl-2,5-diazabicyclo[2.2.1]heptan-2-yl)phenyl)pyrimidin-2-amine], the GI50 is less than 1 µM.

As to `CN1C[C@@H]2C[C@H]1CN2c1ccc(Nc2nccc(-c3cnc4c(c3)OC(C)(C)C(=O)N4)n2)cc1C#N` [compound 53, 4-(2,2-dimethyl-3-oxo-3,4-dihydro-2H-pyrido[3,2-b][1,4]oxazin-7-yl)-N-(3-cyano-4-((1S,4S)-5-methyl-2,5-diazabicyclo[2.2.1]heptan-2-yl)phenyl)pyrimidin-2-amine], the GI50 is less than 1 µM.

For the molecule `Cc1cc(Nc2nccc(-c3ccc(N(C)C)cc3)n2)ccc1N1C[C@@H]2C[C@H]1CN2C` [compound 14, 4-(4-(N,N-dimethylamino)phenyl)-N-(3-methyl-4-((1S,4S)-5-methyl-2,5-diazabicyclo[2.2.1]heptan-2-yl)phenyl)pyrimidin-2-amine], the GI50 is less than 1 µM.

For `Cc1cc(Nc2nccc(-c3cc4cc(C#N)ccc4[nH]3)n2)ccc1N1C[C@@H]2C[C@H]1CN2C` [compound 108, 4-(5-cyano-1H-indol-2-yl)-N-(3-methyl-4-((1S,4S)-5-methyl-2,5-diazabicyclo[2.2.1]heptan-2-yl)phenyl)pyrimidin-2-amine], the GI50 was less than 1 µM.

Turning to `Cc1cc(Nc2nccc(-c3ccc4nccn4c3)n2)ccc1N1C[C@@H]2C[C@H]1CN2C` [compound 103, 4-(imidazo[1,2-a]pyridin-6-yl)-N-(3-methyl-4-((1S,4S)-5-methyl-2,5-diazabicyclo[2.2.1]heptan-2-yl)phenyl)pyrimidin-2-amine], the GI50 was less than 1 µM.

For the molecule `CN1C2CCC1CN(c1ccc(Nc3nccc(-c4ccc(N5CCOCC5)nc4)n3)cc1)C2` [compound 155, 4-(6-(morpholin-4-yl)pyridin-3-yl)-N-(4-(8-methyl-3,8-diazabicyclo[3.2.1]octan-3-yl)phenyl)pyrimidin-2-amine], the GI50 was less than 1 µM.

Consider `Cc1cc(Nc2nccc(-c3ccc(N4CCOCC4)nc3)n2)ccc1N1C[C@@H]2C[C@H]1CN2CC(F)(F)F` [compound 36, 4-(6-(morpholin-4-yl)pyridin-3-yl)-N-(3-methyl-4-((1S,4S)-5-(2,2,2-trifluoroethyl)-2,5-diazabicyclo[2.2.1]heptan-2-yl)phenyl)pyrimidin-2-amine], for which the GI50 lay in the range of 1 to 10 µM.

With `Cc1cc(Nc2nccc(-c3ccc(NCCNS(=O)(=O)C4CC4)nc3)n2)ccc1N1C[C@@H]2C[C@H]1CO2` [compound 100, 4-(6-((2-(cyclopropylsulfonyl)aminoethyl)-amino)pyridin-3-yl)-N-(3-methyl-4-((1S,4S)-5-oxa-2-azabicyclo[2.2.1]heptan-2-yl)phenyl)pyrimidin-2-amine], the GI50 is less than 1 µM.

As for `CN1C2CCC1CN(c1ccc(Nc3nccc(-c4ccc(NS(C)(=O)=O)nc4)n3)cc1)C2` [compound 156, 4-(6-(methylsulfonylamino)pyridin-3-yl)-N-(4-(8-methyl-3,8-diazabicyclo[3.2.1]octan-3-yl)phenyl)pyrimidin-2-amine], the GI50 lay in the range of 1 to 10 µM.

For `CN1CCOc2cc(-c3ccnc(Nc4ccc(N5C[C@@H]6C[C@H]5CN6C)c(F)c4)n3)cnc21` [compound 9, 4-(4-methyl-3,4-dihydro-2H-pyrido[3,2-b][1,4]oxazin-7-yl)-N-(3-fluoro-4-((1S,4S)-5-methyl-2,5-diazabicyclo[2.2.1]heptan-2-yl)phenyl)pyrimidin-2-amine], the GI50 was less than 1 µM.

With `Cc1cc(-c2ccnc(Nc3ccc(N4CC5(C)CN(C)CC(C)(C4)C5)c(F)c3)n2)cnc1N1CCOCC1` [compound 82, 4-(5-methyl-6-(morpholin-4-yl)pyridin-3-yl)-N-(3-fluoro-4-(1,5,7-trimethyl-3,7-diazabicyclo[3.3.1]nonan-3-yl)phenyl)pyrimidin-2-amine], the GI50 is less than 1 µM.

In the case of `Cc1cc(Nc2nccc(-c3cnc4c(c3)OC3(CCC3)C(=O)N4)n2)ccc1N1C[C@@H]2C[C@H]1CN2C` [compound 31, 4-(3′-oxo-3,4′-dihydrospiro[cyclobutane-1,2′-pyrido[3,2-b][1,4]oxazine]-7-yl)-N-(3-methyl-4-((1S,4S)-5-methyl-2,5-diazabicyclo[2.2.1]heptan-2-yl)phenyl)pyrimidin-2-amine], the GI50 was less than 1 µM.

The same assay, now with this note: inhibition of JAK2 activity, proliferation of Ba/F3 V617F cells, read-out: IC50 (the source's name).
As for `Cc1cc(Nc2nccc(-c3cnc4c(c3)OCCN4C)n2)cnc1N1C[C@@H]2C[C@H]1CN2C` [compound 65, 4-(4-methyl-3,4-dihydro-2H-pyrido[3,2-b][1,4]oxazin-7-yl)-N-(5-methyl-6-((1S,4S)-5-methyl-2,5-diazabicyclo[2.2.1]heptan-2-yl)pyridin-3-yl)pyrimidin-2-amine], the GI50 was less than 1 µM.

On to `Cc1cc(Nc2nccc(-c3ccc(NC(=O)CN4CCOCC4)nc3)n2)cnc1N1C[C@@H]2C[C@H]1CN2C` [compound 144, 4-(6-(2-(morpholin-4-yl)acetamido)pyridin-3-yl)-N-(5-methyl-6-((1S,4S)-5-methyl-2,5-diazabicyclo[2.2.1]heptan-2-yl)pyridin-3-yl)pyrimidin-2-amine], for which the GI50 lay in the range of 1 to 10 µM.
